We go through three compounds from patent EP1287854B1 (Cancer Research Technology Limited, priority 2001, dated 2003).

Several values for one entry are separate records, joined by “and”; a condition that tells them apart may be missing. Equal values may be shown once. Marks after values point to notes of the source that are not given here.

Series [1] in a line: Host toxicity: lethality, body weight change, MTD in tumour-bearing mice. The conditions noted are these: for lowering of the MTD for the chemotherapy drug in the combination: co-administration of DMXAA 80 µmol/kg, one dose level; for MTD: MTD (µmol/kg). The protocol:
(§1) Murine mammary carcinoma MDAH-Mca-4 tumours were grown in female C3H/HeN mice from stocks stored in liquid nitrogen at the sixth transplant generation, and were passaged and used for experiments at the eighth transplant generation. Tumours for experiments were grown by inoculating 20 µl of cell suspension ([…] packed cells) intramuscularly in the right gastrocenmius muscle. Animals were randomised to treatment groups, and treated with drugs when the diameter of the tumour-bearing leg reached 10-11 mm (ca. 0.6 g tumour), approximately 18 days after inoculation. […] Both compounds were administered essentially at the same time (within 1 min). Host toxicity was assessed by determination of lethality, and by measurement of body weight 4-5 days after drug treatment. The diameter of the tumour-bearing leg was measured three times weekly until values exceeded 13 mm (ca 1.4 g tumour) at which time the animals were terminated. The growth curve for each individual tumour was plotted as in Figure 1, and the time-to-endpoint (TTE, time from treatment to endpoint) was determined for each mouse. The median and mean TTE was determined for each treatment group. The mean tumour growth delay for each group was calculated as the difference between mean TTE for treated and control groups. The statistical significance of the antitumour effects was tested using ANOVA followed by Dunnett's test to determine p values for the significance of differences between individual groups.
(§2) Toxicity was assessed as lethality, and body weight loss measured four days after treatment. Any animals becoming moribund were terminated and treated as drug-related deaths in the analysis. The diameter of the tumour-bearing leg was measured 3 times per week after treatment. Antitumour activity was assessed from the tumour growth delay, defined as the difference in time to reach the endpoint of 13 mm (1.5 g tumour) for treated and control groups. Responses were classed as cures if animals were free of evident tumour 120 days after treatment. The statistical significance of tumour growth inhibition was tested by ANOVA using SAS for Windows, with Dunnett's test to evaluate p-values for differences between treatment groups. In experiments with substantial numbers of cures (free of tumour for > 120 days after treatment), statistical significance was tested by Kruskal-Wallis non-parametric analysis of variance using SAS for Windows, and the difference between treatment and control groups by Dunn's test using Sigmastat v2.0.

In series [2] the test system is Murine mammary carcinoma MDAH-Mca-4 tumours. As to the kind of experiment: Tumour growth delay and cures, MDAH-Mca-4 tumours grown i.m. in mice. Conditions: for activity against the MDAH-Mca-4 tumour (in words): single i.p. dose, alone or co-administered with DMXAA 80 µmol/kg. Format: in vivo, female C3H/HeN mice. On the procedure:
as §1
Animals and Tumours: Murine mammary carcinoma MDAH-Mca-4 tumours were grown from stocks stored in liquid nitrogen at the sixth transplant generation. Tumours (eighth transplant generation when used) were grown from 20 µl of cell suspension (7 mg packed cells), inoculated i.m. in the right gastrocnemius muscle of female C3H/HeN mice (22-25 g at the time of treatment). Mice were randomised to treatment which commenced when the tumour + leg diameter reached 10-11 mm (0.5-0.7 g tumour).
as §2

A further series in a line: in vivo. Conditions: female, C3H/HeN, mouse; for AUC: intraperitoneal.
Series [3] in a line: Pharmacokinetics in plasma and tumour of tumour-bearing mice.
Protocol: (§3) At various times blood was collected from the retro-orbital sinus of anaesthetised mice into heparinised tubes, and the plasma separated by centrifugation. Tumours were rapidly dissected and frozen at -80°C. Groups of 2-5 mice were used for each time point.
(§4) LC-MS analysis of paclitaxel: Concentrations of paclitaxel in plasma and tumour were determined by HPLC with detection by positive mode electrospray mass spectrometry. Aliquots of plasma (50 µl) were treated with 1ml of ice-cold acetonitrile:methanol (3:1 v/v) to precipitate proteins. Following addition of 5 µl of an internal standard solution (10 mM cephalomannine), samples were centrifuged, and the resulting supernatants evaporated using a Speed-Vac solvent concentrator (Savant Instruments, NY). The residues were dissolved in 100 µl of 1:1 (v/v) methanol:mobile phase (48% acetonitrile, 52% 1mM sodium acetate buffer (pH 6.2)), and 5-40 µl analysed by LC-MS. Frozen tumours were minced, then homogenised in 2 vol distilled water using a Polytron homogeniser. Ice-cold acetonitrile (1 ml), and 10 µl of internal standard (20 µM cephalomannine) was added to 200 µl of tumour homogenate. The samples were centrifuged and the supernatants dried as above. The residues were dissolved in 200 µl of 1:1 (v/v) methanol:mobile phase, and 5 µl analysed by LC-MS.
(§5) The LC-MS system was an Agilent HP1100/MSD (Hewlett Packard Waldbronn, Germany) with a 3.2 mm x 150 mm C8 5 µm column (Alltima Associates Inc., Deerfield, IL) and a flow rate of 0.7 ml/min. The mass detector used N2 as the nebulizing and drying gas (flow rate 10 L/min, 350°C; neubulizer pressure 25 psi, capillary voltage 2500 V, fragmentor voltage 120 V). Paclitaxel (MW 854) and cephalomannine internal standard (MW 832) were detected, using single ion monitoring, as sodium adducts at m/z of 876 and 854, respectively. Spiking of control material indicated assay linearity from 0.3-30 µM for both plasma and tumour (r^2 = 0.999). The intra- and inter- assay precision and accuracy gave coefficients of variation ≤ 5%, and recoveries in the range 92-102%. The lower limit of detection of paclitaxel in plasma and tumour (signal:noise ratio of 3) was 0.3 µM.
(§6) Aliquots of plasma (50 µl) were treated with 1 ml of ice-cold acetonitrile:methanol (3:1 v/v), centrifuged, and the resulting supernatants evaporated as above. The residues were dissolved in 200 µl of 10 mM ammonium acetate buffer (pH 5) and 25 µl was analysed by HPLC using a HP1100 system with diode array detector (278 nm) and fluorescence detector. The column and flow rate were as for paclitaxel above, with a mobile phase of 16% acetonitrile (v/v) in 10 mM ammonium acetate buffer (pH 5). […] The intra- and inter- assay precision and accuracy gave coefficients of variation <7%, and an average recovery of 70%. The lower sensitivity limit of detection by fluorescence (signal:noise ration of 3) was 0.1 µM.
(§7) Pharmacokinetic Modelling: Modelling of pharmacokinetic data was done using ModelMaker version 4.0 (Cherwell Scientific Limited, The Magdalen Centre, Oxford Science Park, Oxford OX4 4GA, United Kingdom). The following pharmacokinetic parameters were used: Kabs, the first-order rate constant for absorption into the central compartment; Cl, total body clearance; Clinter, intercompartmental clearance; Vd, apparent volume of distribution of the central compartment; Vd2, apparent volume of distribution of the second compartment; Km, Michaelis-Menten constant; Vmax, theoretical maximum rate; AUC, area under the concentration-time curve. For all compounds it was assumed that all of the administered dose would reach the central compartment (i.e. 100% bioavailability). Differences between treatment groups were tested using a F-test comparing the entire curves and if this difference was significant (i.e. p≤0.05) the estimates of each individual model parameter for both groups were tested using a 2-tailed t-test.
For another series, the system named is MDAH-Mca-4 tumour. As to the kind of experiment: Tumour blood flow inhibition, Hoechst 33342 perfusion marker. It is filed as in vivo, mice. Conditions: DMXAA at 80 µmol/kg (Fig 6A). On the procedure: Tumour blood flow inhibition: Tumour blood flow was assessed using the fluorescent perfusion marker Hoechst 33342 (8mg/ml in saline), which was administered i.v. at various times after drug treatment. Mice were scarified 2 min later, and frozen sections (14 µm) prepared from the distal, central and proximal regions of each tumour. Sections were examined with a Nikon epifluorescence microscope at 10x magnification using a UV-1A filter block (excitation 365 nm, barrier filter 400 nm, and dichroic mirror 400 nm). A grid with 81 squares (100 x 100 µm), was used for point scoring of staining. The whole area of each section was scored to avoid bias between peripheral and central regions (which were less well perfused). Normal tissue was excluded but necrotic areas were included. Differences between groups were treated for significance using the Student's t-test (Sigma Stat, version-2.0; Jandel Scientific Limited).

Where [4] appears, read: chemotherapy drug alone at its MTD, i.p.
The mark [5] stands for this setting: chemotherapy drug at MTD of combination, co-administered with DMXAA 80 µmol/kg.
[6] abbreviates: female, C3H/HeN, mouse, in vivo, ip, chemotherapy drug alone (no DMXAA).
Where [7] appears, read: female, C3H/HeN, mouse, in vivo, ip, chemotherapy drug co-administered with DMXAA 80 µmol/kg.
The mark [8] stands for this setting: chemotherapy drug alone, linear regression of growth delay on dose.
Where [9] appears, read: chemotherapy drug co-administered with DMXAA 80 µmol/kg, linear regression.
[10] abbreviates: paclitaxel 31.6 µmol/kg alone, i.p. once.
[11] abbreviates: paclitaxel 31.6 µmol/kg alone, i.p. once, 7 mice treated.
Setting [12] is: DMXAA 80 µmol/kg alone, i.p. once (Table 1).

Protocol for in vivo: as §3, §4, §5, §6, §7

In the case of `CC(=O)O[C@@]12CO[C@@H]1C[C@H](O)[C@@]1(C)C(=O)[C@H](O)C3=C(C)[C@@H](OC(=O)[C@H](O)[C@@H](NC(=O)OC(C)(C)C)c4ccccc4)C[C@@](O)([C@@H](OC(=O)c4ccccc4)[C@H]21)C3(C)C` [docetaxel, (2R,3S)-N-carboxy-3-phenylisoserine, N tert-butyl ester, 13-ester with 5b-20-epoxy-1,2a,4,7b,10b,13a-hexahydroxytax-11-en-9-one 4-acetate 2-benzoate trihydrate], the “% Body weight change (d4-5) Mean” value in series [1] (Docetaxel 17.8 µmol/kg alone) is listed as -1.8%; in series [1] (Docetaxel 23.7 µmol/kg alone), -4.1%. For the same compound, the “Number of mice Deaths” value in series [1] (Docetaxel 17.8 µmol/kg alone, 2 mice treated, interim analysis) amounted to 0; in series [1] (Docetaxel 23.7 µmol/kg alone, 5 mice treated, interim analysis), 0. The “% body weight change at 4 days” value in series [1] (setting [4]) is listed as -4.1 ± 1.3%; in series [1] (setting [5]), -7.2 ± 1.2%. Moreover, the “lowering of the MTD for the chemotherapy drug in the combination” value in series [1] is reported as 1.33 fold. Moreover, the MTD in series [1] (setting [6]) is 23.7 µmol/kg; in series [1] (setting [7]) it was 17.8 µmol/kg. In addition, the “Growth delay (days) Median” value is recorded as -1.7 days in series [2] (Docetaxel 17.8 µmol/kg alone, interim analysis) and 0.8 days in series [2] (Docetaxel 23.7 µmol/kg alone, interim analysis). For the same compound, the results for the “Slope of dose/response” value in series [2] (setting [8]) and in series [2] (setting [9]) were -0.02 ± 0.14 days/µmol/kg and 1.37 ± 0.22 days/µmol/kg, respectively. Besides, the DMF result in series [2] (gradient with DMXAA/gradient without DMXAA, estimated using upper error estimate of the slope for the chemotherapy drug only, trihydrate) is “significantly greater than unity”; in series [2] (im) it was >9^c. The “activity against the MDAH-Mca-4 tumour (in words)” value is “essentially inactive” in series [2] (listed as Docetaxel, trihydrate) and “essentially devoid of activity” in series [2] (trihydrate).

The AUC is concentration integrated over time. Read a high AUC as more exposure. Regarding `CC(=O)O[C@H]1C(=O)[C@@]2(C)[C@H]([C@H](OC(=O)c3ccccc3)[C@]3(O)C[C@H](OC(=O)[C@H](O)[C@@H](NC(=O)c4ccccc4)c4ccccc4)C(C)=C1C3(C)C)[C@]1(OC(C)=O)CO[C@@H]1C[C@@H]2O` [paclitaxel, 5β, 20-Epoxy-1,2a,4,7β,10β,13a-hexahydroxytax-11-en-9-one 4,10-diacetate 2-benzoate 13-ester with (2R, 3 S)-N-benzoyl-3-phenylisoserine], the “% body weight change at 4 days” value was 0.3 ± 1.1% in series [1] (setting [4]) and -3.9 ± 1.2% in series [1] (setting [5]). In addition, in series [1], the “lowering of the MTD for the chemotherapy drug in the combination” value worked out at 1.33 fold. Also, the “Number of mice Deaths” value in series [1] (female, C3H/HeN, mouse, in vivo, ip, 42.1 µmol/kg) was 0; in series [1] (setting [11]), 0. In addition, the figures for the MTD in series [1] (setting [6]) and in series [1] (setting [7]) were 42.1 µmol/kg and 31.6 µmol/kg, respectively. The “% Body weight change (d4-5) Mean” value in series [1] (mouse, in vivo, ip) came to 0.3%; in series [1] (setting [10]) it was 1.9%. Further, in series [2] (DMXAA dose-response experiment (Fig 5), paclitaxel alone at 23.7 µmol/kg), the antitumour activity entry is reported as “no significant activity”. Besides, the “Slope of dose/response” value in series [2] (setting [8]) was found to be 0.08 ± 0.06 days/µmol/kg; in series [2] (setting [9]), 1.83 ± 0.4 days/µmol/kg. Further, the DMF result in series [2] (gradient with DMXAA/gradient without DMXAA, estimated using upper error estimate of the slope for the chemotherapy drug only) is “significantly greater than unity”; in series [2] (gradient with DMXAA/gradient without DMXAA, estimated using upper error estimate of the slope for the chemotherapy drug only, listed as Paclitaxel) it was >13^c. For the same compound, the “Growth delay (days) Mean” value in series [2] (setting [10]) was 0.1 days; in series [2] (paclitaxel 42.1 µmol/kg alone, i.p. once), 4 days and 4.3 days. The “Number of mice Cures” value in series [2] (setting [11]) came out at 0; in series [2] (paclitaxel 42.1 µmol/kg alone, i.p. once, 7 mice treated), 0. The “activity against the MDAH-Mca-4 tumour (in words)” value in series [2] is “essentially inactive”. Further, the AUC in the series “in vivo” (plasma, 23.7 umol/kg) amounted to 18.8 µM·h; in “in vivo” (tumour, 23.7 umol/kg), 32.8 µM·h.

By Km is commonly meant the substrate concentration at which the rate is half of its maximum. For the compound `Cc1ccc2c(=O)c3cccc(CC(=O)O)c3oc2c1C` [DMXAA, 5,6-dimethylxanthenone-4-acetic acid], the “% Body weight change (d4-5) Mean” value in series [1] (DMXAA 80 µmol/kg alone (Table 3)) is given as -4.8%; in series [1] (setting [12]), -4.1%. Besides, the “effect of co-administration on DMXAA plasma pharmacokinetic parameters” value in series [3] (DMXAA 80 µmol/kg with paclitaxel at 23.7 µmol/kg) is on record as “unaffected”. In addition, the “Vmax (µM hr^-1)” value in series [3] (Plasma, DMXAA 80 µmol/kg i.p., parentheses % CV) is on record as 63 (6.1) µM hr^-1. In addition, the “Growth delay (days) Median” value in series [2] (DMXAA 80 µmol/kg alone (Table 3, interim analysis)) turned out to be 10.5 days. For the same compound, the “Growth delay (days) Mean” value in series [2] (setting [12]) is recorded as 8.3 days. Also, the “Number of mice Cures” value in series [2] (DMXAA 80 µmol/kg alone, i.p. once, 7 mice treated (Table 1)) is listed as 0. Moreover, in series [2] (DMXAA alone at 80 µmol/kg), the “mean tumour growth delays (range over experiments)” value is 3.5 to 8.3 days. In series [2] (DMXAA alone at 80 µmol/kg, all experiments), the “tumour growth delay, overall mean” value stood at 6.6 ± 0.6 days. Besides, the “inhibition of tumour blood flow (H33342 perfusion), time course” value in the series on MDAH-Mca-4 tumour is “prompt and irreversible blood flow shutdown, with no recovery by 24 hr”. The AUC in the series “in vivo” (plasma, 80 umol/kg) turned out to be 3630 µM·h. Also, the Km in the series “in vivo” (plasma, ip, 80 µmol/kg) was 220 µM.
